Laboratory results from US10413593B2 (priority 2014, dated 2019).

Legend:
[1] = Second study in DIO mice: body weight change percent relative to vehicle (Example 19, FIG. 2); type: in vivo, mice (strain C57Bl6/NTac); details: 3 nmol/kg daily, eight days
Experimental: In addition, the peptide of SEQ ID NO: 8 was administered at 15 nmol/kg, while the peptide of SEQ ID NOs: 10 and 11 were administered at 3 nmol/kg. Body weight was measured daily for eight days and body weight change is expressed as percent relative to vehicle (FIG. 2).

[2] = Cumulative body weight change in DIO mice, daily s.c. dosing for nine days (Example 18, FIG. 1); type: in vivo, mice (strain C57Bl6/NTac); details: 9 nmol/kg s.c. daily, day 9
Experimental: Mice were administered a vehicle control or a dose of a peptide daily for nine days. […] The peptide of SEQ ID NO: 9 was administered at doses of 9 and 25 nmol/kg. Cumulative body weight change (grams) was measured each day of the study except on day 3. Results are shown in FIG. 1 and are expressed as mean±SEM.

[3] = Cumulative food intake in DIO mice (Example 20, FIG. 3); details: 3 nmol/kg, after 8 days of dosing
Text: For the studies in Examples 18, 19, 20, and 21, diet induced obesity (DIO) mice (strain C57Bl6/NTac; 20 weeks on a high fat diet, about 47 g) were divided into groups of eight mice per group and the initial average body weight, food intake and basal glucose of each group were matched before peptide administration. Each group of mice was subcutaneously injected daily with a dose of Co-agonist Peptide or vehicle control for 7 to 10 days. The peptides tested in this study were Co-agonist Peptides 1, 2, 3, 4, 5, and 6 (SEQ ID NOs: 6, 7, 8, 9, 10, and 11, respectively) at the doses that varied from 3 nmol/kg to 25 nmol/kg. Body weight, food intake and basal glucose were measured periodically during treatment.

SMILES: CCCCCCCCCCCCCCCC(=O)N[C@@H](CCC(=O)N[C@@H](CCC(=O)NCCCC[C@H](NC(=O)[C@H](CC(=O)O)NC(=O)[C@H](CO)NC(=O)[C@@H](NC(=O)[C@H](Cc1ccccc1)NC(=O)[C@@H](NC(=O)CNC(=O)[C@H](CCC(N)=O)NC(=O)[C@@H](CO)NC(=O)[C@@H](N)Cc1c[nH]cn1)[C@@H](C)O)[C@@H](C)O)C(=O)N[C@@H](CO)C(=O)N[C@@H](CCCCN)C(=O)N[C@@H](Cc1ccc(O)cc1)C(=O)N[C@@H](CC(C)C)C(=O)N[C@@H](CC(=O)O)C(=O)N[C@@H](C)C(=O)N[C@@H](CCCNC(=N)N)C(=O)N[C@@H](C)C(=O)N[C@@H](C)C(=O)N[C@@H](CCC(N)=O)C(=O)N[C@@H](CC(=O)O)C(=O)N[C@@H](Cc1ccccc1)C(=O)N[C@H](C(=O)N[C@@H](CCC(N)=O)C(=O)N[C@@H](Cc1c[nH]c2ccccc12)C(=O)N[C@@H](CC(C)C)C(=O)N[C@@H](CC(C)C)C(=O)N[C@@H](CC(=O)O)C(=O)N[C@H](C(N)=O)[C@@H](C)O)C(C)C)C(=O)O)C(=O)O [SEQ ID NO: 10]
- weight loss, percent relative to vehicle [1]: approximately 17%
- body weight loss [2]: approximately 13 grams
- change in food intake vs vehicle [3]: significant suppression of food intake
